“Also recorded” adds a separate entry of the source.

The source of these data is patent US9927430B2, “Pro-substrates for live cell applications” (PROMEGA CORPORATION, priority 2014, dated 2018).

This series is described as follows: Furimazine release by hydrolysis at different pH, HPLC at 262 nm. The series is classed as physicochemical. The procedure: The effect of pH on the hydrolysis of the disclosed compounds may be useful for high-throughput screening (HTS). The percent furimazine released in 1 mM of PBI-5455 solutions with different pH values ranging from 5.9 to 7.6 were detected over time using HPLC at 262 nm. […] These compounds can be used to support HTS operation methods to enhance the initial brightness by adjusting pH or adding an appropriate nucleophile.
As shown in Example 23, PBI-5455 is stable in slightly acidic buffer for 10 hrs. […] For BRET applications to detect protein-protein and/or ligand-protein interactions, if it is a one-time point reading, the concentration in media could be higher than 100-200 μM.

As to `CC(=O)NC(CC(=O)O)C(=O)NC(CC(=O)O)C(=O)NC(CC(=O)O)C(=O)N(C)CCN(CCCN1CCOCC1)C(=O)Oc1c(Cc2ccco2)nc2c(Cc3ccccc3)nc(-c3ccccc3)cn12` (centres unmarked) [PBI-5455, Ac-DDD-MOP-C2-FRZ], the “release of furimazine by hydrolysis” value (1 mM solutions, pH values ranging from 5.9 to 7.6, over time, HPLC at 262 nm (FIG. 14)) is “pH dependent; also recorded: The higher the pH, the faster the release”. In addition, under “slightly acidic buffer”, the “stable in buffer (time)” value turned out to be 10 h.
